Non-standard residues stand in square brackets, D forms with d. Residues, ends and D or L forms follow the SMILES beside them. *: point of attachment. Phe(4-CH2SO3H) = N[C@@H](Cc1ccc(CS(=O)(=O)O)cc1)C(=O)O; X1 = [N-]=[N+]=NCCOCCOCC*
Columns and labels:
[1] = Water solubility
[2] = target: gp120-CD4 (Human immunodeficiency virus type 1 group M subtype B, UniProt P35961); format: binding, HIV-1; conditions: 1H NMR; 40:1 peptide:gp120-CD4

Structure (SMILES): CC[C@H](C)[C@H](NC(=O)[C@H](CC(=O)O)NC(=O)[C@H](Cc1ccc(CS(=O)(=O)O)cc1)NC(=O)[C@@H](NC(=O)[C@@H]1CCCN1C(=O)[C@H](CO)NC(=O)[C@H](CO)NC(=O)[C@@H](NC(=O)[C@H](CCC(N)=O)NC(=O)[C@H](Cc1ccc(CS(=O)(=O)O)cc1)NC(=O)[C@@H](N)CC(=O)O)C(C)C)[C@@H](C)CC)C(=O)N[C@@H](CC(N)=O)C(=O)N[C@@H](Cc1ccc(CS(=O)(=O)O)cc1)C(=O)N[C@@H](Cc1ccc(O)cc1)C(=O)N[C@H](C(=O)N[C@@H](CO)C(=O)N[C@@H](CCC(=O)O)C(=O)N1CCC[C@H]1C(=O)N[C@@H](COCCOCCOCCN=[N+]=[N-])C(=O)O)[C@@H](C)O [compound 11] (H-D[Phe(4-CH2SO3H)]QVSSPI[Phe(4-CH2SO3H)]DIN[Phe(4-CH2SO3H)]YTSEPS(X1)-OH; N-terminus and C-terminus assumed)
- solubility [1]: > 30 mM
- Increase in line width between free and bound peptides, 10δ [2]: 2.4 Hz
- Increase in line width between free and bound peptides, 14δ [2]: 2.8 Hz
- Increase in line width between free and bound peptides, 15δ [2]: 1.9 Hz
- Increase in line width between free and bound peptides, 15ε [2]: 3.2 Hz

From paper PMC2650494 (Bioorganic & medicinal chemistry, 2008)
